Data taken from PubChem BioAssay AID623904 (Broad Institute, 2012).
“And” between values parts separate entries of the source, which are not always exact repeats. Equal entries are not always repeated. The source made the active and inactive calls.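 Rule for the calls: active = growth inhibition with an AC50 at or below twice the top valid tested dose; inconclusive = flat curve at 30 to 70% inhibition, or poor fit; inactive = the rest, including growth increase.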

Assays:
[1] = C. glabrata growth inhibition on glucose, dose response, glucose medium, OD600, powder samples, set 2 (AID 623904); conditions: Candida glabrata growth, glucose medium, OD600, 48 h; at 6 µM (top of the series)
[2] = system: Candida glabrata growth, glucose medium, OD600, 48 h; experiment: as above

In the case of CC(C)N1C(=S)NC(=O)C12CCCCC2, the activity change, negative = inhibition [1] is reported as -10.3% (inactive).
With CCOC(=O)N1C(=O)C2(CCCC2)N(c2ccc(C)cc2)C1=S the AC50 [2] was > 12 µM (inactive).
CCOC(=O)N1C(=O)C2(CCCCC2)N(c2ccccc2)C1=S showed an AC50 [2] of 2.04 µM.
With Cc1ccc(N2C(=S)N(C(=O)OCc3ccccc3)C(=O)C23CCCCC3)cc1 the activity change, negative = inhibition [1] was 5.73% (inactive).
For CCOC(=O)N1C(=O)C2(CCCCC2)N(c2ccc(-c3ccccc3)cc2)C1=S, the activity change, negative = inhibition [1] was -30.1% (inactive).
In the case of CCOC(=O)N1C(=O)C2(CCC2)N(c2ccc(C)cc2)C1=S, the AC50 [2] is reported as > 12 µM (inactive).
For CCOC(=O)N1C(=O)C2(CCCCC2)N(C(C)C)C1=S, the activity change, negative = inhibition [1] was 10.8% (inactive).
With Cc1ccc(N2C(=O)C3(CCCCC3)NC2=S)cc1 the AC50 [2] was > 12 µM (inactive).
With CCCCN1C(=O)N(c2ccc(C)cc2)C2(CCCCC2)C1=O the activity change, negative = inhibition [1] was -27.1% (inactive).
In the case of Cc1ccc(N2C(=O)N(C)C(=O)C23CCCCC3)cc1, the AC50 [2] is reported as > 12 µM (inactive).
With Cc1ccc(N2C(=S)NC(=O)C23CCC3)cc1 the activity change, negative = inhibition [1] was 9.11% (inactive).
In the case of O=C1NC(=S)N(c2ccc(F)cc2)C12CCCCC2, the activity change, negative = inhibition [1] is reported as 11% (inactive).
In the case of Cc1ccc(N2C(=O)C(=O)NC2=S)cc1, the AC50 [2] is reported as > 12 µM (inactive).
With Cc1ccc(N2C(=S)NC(=O)C23CCCC3)cc1 the activity change, negative = inhibition [1] was -25.3% (inactive).
For Cc1ccc(N2CC(=O)NC2=S)cc1, the activity change, negative = inhibition [1] was 2.6% (inactive).
With Cc1ccc(N2CC(=O)NC2=O)cc1 the activity change, negative = inhibition [1] was 9.85% (inactive).
With CCOC(=O)N1C(=S)N(c2ccc(C)cc2)C2(CCCCC2)C1=NCc1ccccc1 the AC50 [2] was > 12 µM (inactive).
In the case of CCOC(=O)N1C(=O)C2(CCCCC2)N(c2ccc(C#N)cc2)C1=S, the AC50 [2] is reported as 3.29 µM.
For Cc1ccc(N2C(=S)N(C(=O)Oc3ccccc3)C(=O)C23CCCCC3)cc1, the activity change, negative = inhibition [1] was 2.19% (inactive).
In the case of O=C1NC(=S)N(c2ccccc2)C12CCCCC2, the activity change, negative = inhibition [1] is reported as 5.48% (inactive).
CCOC(=O)N1C(=O)C2(CCCCC2)N(c2ccc(C(F)(F)F)cc2)C1=S gave an AC50 [2] of 4.15 µM.
In the case of CCOC(=O)N1C(=O)N(c2ccc(C)cc2)C2(CCCCC2)C1=O, the activity change, negative = inhibition [1] is reported as -17.3% (inactive).
For Cc1ccc(N2C(=S)NC(=O)C2(C)C)cc1, the activity change, negative = inhibition [1] was 46.6% (inactive).
With CCOC(=O)N1C(=S)N(c2ccc(C)cc2)C(=O)C12CCCCC2 the AC50 [2] was > 12 µM (inactive).
For CCCCN1C(=O)N(c2ccc(C)cc2)C2(CCCCC2)C1=S, the activity change, negative = inhibition [1] was -6.75% (inactive).
With Cc1ccc(N2C(=S)NC(=O)C23CCCCC3)cc1 the activity change, negative = inhibition [1] was -5.97% (inactive).
For CCOC(=O)N1C(=S)NC(=O)C12CCCCC2, the AC50 [2] was > 12 µM (inactive).
In the case of CCOC(=O)N1C(=O)C2(CCCCC2)N(c2ccc(C(C)(C)C)cc2)C1=S, the activity change, negative = inhibition [1] is reported as -18.2% (inactive).
For O=C1NC(=S)NC12CCCCC2, the activity change, negative = inhibition [1] was -24.5% (inactive).
CCOC(=O)N1C(=O)C2(CCCCC2)N(c2ccc(F)cc2)C1=S gave an AC50 [2] of 2.34 µM.
For Cc1ccc(N2C(=S)NC(=O)C23CCOCC3)cc1, the activity change, negative = inhibition [1] was -7.64% (inactive).
For CCOC(=O)N1C(=O)C2(CCCCC2)NC1=S, the AC50 [2] was > 12 µM (inactive).
For Cc1ccc(N2C(=S)N(S(C)(=O)=O)C(=O)C23CCCCC3)cc1, the AC50 [2] was > 12 µM (inactive).
In the case of CCCC(=O)N1C(=O)C2(CCCCC2)N(c2ccc(C)cc2)C1=S, the AC50 [2] is reported as 1.48 µM.
In the case of CCOC(=O)N1C(=O)C2(CCCCC2)N(c2ccc(C)cc2)C1=S, the AC50 [2] is reported as 1.85 µM and 2.09 µM.
For CCOC(=O)N1C(=O)C2(CCOCC2)N(c2ccc(C)cc2)C1=S, the AC50 [2] was > 12 µM (inactive).
Work on CCOC(=O)N1C(=O)C2(CCCCC2)N(c2cccc(C)c2)C1=S yielded an AC50 [2] of 2.34 µM.
In the case of CCCCN1C(=O)C2(CCCCC2)N(c2ccc(C)cc2)C1=S, the activity change, negative = inhibition [1] is reported as 5.19% (inactive).
With CCOC(=O)N1C(=O)C(C)(C)N(c2ccc(C)cc2)C1=S the activity change, negative = inhibition [1] was -7.97% (inactive).
For Cc1ccc(N2C(=O)NC(=O)C23CCCCC3)cc1, the AC50 [2] was > 12 µM (inactive).
For COC(=O)N1C(=O)C2(CCCCC2)N(c2ccc(C)cc2)C1=S, the AC50 [2] was 5.93 µM.
CC1/C=C/C=C\C=C\C=C\C=C\C=C\C=C\C(O[C@H]2OC(C)C(O)C(N)C2O)CC2OC(O)(CC(O)CC(O)C(O)CCC(O)CC(O)CC(=O)OC(C)C(C)C1O)CC(O)C2C(=O)O (stereo partly drawn) showed an AC50 [2] of 0.206 µM.
With Cc1ccc(N2C(=S)N(C)C(=O)C23CCCCC3)cc1 the activity change, negative = inhibition [1] was 2.67% (inactive) and 7.65% (inactive).
